Results reported in PubChem BioAssay AID330 (DTP/NCI, 2004).
“And” between values parts separate entries of the source, which are not always exact repeats. Identical values can stand only once. Inconclusive results and toxic doses are left out. Rule for the calls: active = survival T/C of 150% or more; inactive = T/C below 125% in these data.

Test system: P388 leukemia ip, CD2F1 mice, survival T/C
Experiment: NCI In Vivo Anticancer Drug Screen. Data for tumor model P388 Leukemia (intraperitoneal) in CD2F1 (CDF1) mice
Details: endpoint: median survival time, higher = longer survival
In short: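 Mice carrying the transplanted tumor received test compound or vehicle. Survival was recorded in each group, and the value is the treated-group measurement divided by that of the vehicle-treated control group.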

[1] = dose: 50.0 mg/kg/injection, schedule: Q01DX005 (ip), vehicle: saline with Tween-80
[2] = dose: 100.0 mg/kg/injection, schedule: Q01DX005 (ip), vehicle: saline with Tween-80
[3] = dose: 200.0 mg/kg/injection, schedule: Q01DX005 (ip), vehicle: saline with Tween-80
[4] = dose: 50.0 mg/kg/injection, schedule: Q01DX009 (ip), vehicle: Klucel (hydroxypropylcellulose) (HPC)
[5] = dose: 50.0 mg/kg/injection, schedule: Q01DX009 (ip), vehicle: saline
[6] = dose: 100.0 mg/kg/injection, schedule: Q01DX009 (ip), vehicle: Klucel (hydroxypropylcellulose) (HPC)
[7] = dose: 100.0 mg/kg/injection, schedule: Q01DX009 (ip), vehicle: saline
[8] = dose: 200.0 mg/kg/injection, schedule: Q01DX009 (ip), vehicle: saline
[9] = dose: 12.5 mg/kg/injection, schedule: Q01DX009 (ip), vehicle: saline
[10] = dose: 25.0 mg/kg/injection, schedule: Q01DX009 (ip), vehicle: saline
[11] = dose: 60.0 mg/kg/injection, schedule: Q01DX005 (ip), vehicle: saline with Tween-80
[12] = dose: 120.0 mg/kg/injection, schedule: Q01DX005 (ip), vehicle: saline with Tween-80
[13] = dose: 240.0 mg/kg/injection, schedule: Q01DX005 (ip), vehicle: saline with Tween-80
[14] = dose: 60.0 mg/kg/injection, schedule: Q01DX005 (ip), vehicle: Klucel (hydroxypropylcellulose) (HPC)
[15] = dose: 120.0 mg/kg/injection, schedule: Q01DX005 (ip), vehicle: Klucel (hydroxypropylcellulose) (HPC)
[16] = dose: 240.0 mg/kg/injection, schedule: Q01DX005 (ip), vehicle: Klucel (hydroxypropylcellulose) (HPC)

Measured: T/C

CC(=O)c1ccc(-n2c(=O)n(-c3ccccc3)c3nc4cc(C)ccc4nc32)cc1
inactive: [1] 90 % of control | [2] 92 % of control | [3] 98 % of control

CC(=O)OCC1OC(Oc2ccc(C=C(C(C)=O)C(C)=O)cc2)C(OC(C)=O)C(OC(C)=O)C1OC(C)=O (stereo not drawn)
inactive: [1] 105 % of control | [2] 101 % of control | [3] 104 % of control

CN(C)CCC(=O)c1ccc(Cl)c(Cl)c1
inactive: [4] 107 % of control | [5] 108 % of control | [6] 109 % of control | [7] 110 % of control | [8] 109 % of control

CC(=O)Oc1cc2c(cc1OC(C)=O)C(=O)CCC=C2
inactive: dose: 100.0 mg/kg/injection, schedule: Q04DX003 (ip), vehicle: saline sonified 110 % of control | dose: 200.0 mg/kg/injection, schedule: Q04DX003 (ip), vehicle: saline sonified 100 % of control | dose: 400.0 mg/kg/injection, schedule: Q04DX003 (ip), vehicle: saline sonified 100 % of control

CCOC(=O)C(/N=N\c1nn[nH]n1)/N=N/c1ncn[nH]1 (stereo not drawn)
inactive: dose: 100.0 mg/kg/injection, schedule: Q01DX001 (ip), vehicle: suspension in saline 102 % of control | dose: 200.0 mg/kg/injection, schedule: Q01DX001 (ip), vehicle: suspension in saline 102 % of control | dose: 400.0 mg/kg/injection, schedule: Q01DX001 (ip), vehicle: suspension in saline 107 % of control

CC1(C(=O)O)CCCC2(C)C3=CC(=O)OC3(OO)CCC12 (stereo not drawn)
inactive: [9] 104 % of control | [10] 101 % of control | [5] 101 % of control

CCOC(=O)C1C2(C)NC(=O)C1(Cc1ccccc1)c1ccc(O)cc1O2 (stereo not drawn)
inactive: [1] 95 % of control | [2] 96 % of control | [3] 95 % of control

COC(=O)C1=C/CCCN/C=C\1C(=O)OC
inactive: dose: 100.0 mg/kg/injection, schedule: Q04DX003 (ip), vehicle: Klucel (hydroxypropylcellulose) (HPC) 97 % of control | dose: 200.0 mg/kg/injection, schedule: Q04DX003 (ip), vehicle: Klucel (hydroxypropylcellulose) (HPC) 97 % of control | dose: 400.0 mg/kg/injection, schedule: Q04DX003 (ip), vehicle: Klucel (hydroxypropylcellulose) (HPC) 98 % of control

COC1=CC2OC3OC(=O)CC3C2C(OCc2ccccc2)=C1 (stereo not drawn)
inactive: [11] 91 % of control | [12] 88 % of control | [13] 90 % of control

CCN(CC)c1ccc(C=C2C(=O)NC(=S)NC2=O)cc1
inactive: dose: 25.0 mg/kg/injection, schedule: Q01DX005 (ip), vehicle: Klucel (hydroxypropylcellulose) (HPC) 101 % of control | dose: 50.0 mg/kg/injection, schedule: Q01DX005 (ip), vehicle: Klucel (hydroxypropylcellulose) (HPC) 100 % of control | dose: 100.0 mg/kg/injection, schedule: Q01DX005 (ip), vehicle: Klucel (hydroxypropylcellulose) (HPC) 101 % of control | dose: 200.0 mg/kg/injection, schedule: Q01DX005 (ip), vehicle: Klucel (hydroxypropylcellulose) (HPC) 100 % of control

Nc1cc(=O)[nH]c(=S)n1-c1ccccn1
inactive: dose: 75.0 mg/kg/injection, schedule: Q01DX001 (ip), vehicle: saline with Tween-80 104 % of control | dose: 150.0 mg/kg/injection, schedule: Q01DX001 (ip), vehicle: saline with Tween-80 100 % of control | dose: 300.0 mg/kg/injection, schedule: Q01DX001 (ip), vehicle: saline with Tween-80 104 % of control

O=C(Nc1cc(-c2ccccc2)nn1-c1ccccc1)c1ccccc1F
inactive: [11] 103 % of control | [12] 103 % of control | [13] 111 % of control

Cn1c2nc3ccccc3c-2nc2ccccc21
inactive: dose: 1.56 mg/kg/injection, schedule: Q01DX009 (ip), vehicle: water 100 % of control | dose: 3.13 mg/kg/injection, schedule: Q01DX009 (ip), vehicle: water 92 % of control | dose: 6.25 mg/kg/injection, schedule: Q01DX009 (ip), vehicle: water 88 % of control | dose: 12.5 mg/kg/injection, schedule: Q01DX009 (ip), vehicle: Klucel (hydroxypropylcellulose) (HPC) 92 % of control | dose: 25.0 mg/kg/injection, schedule: Q01DX009 (ip), vehicle: Klucel (hydroxypropylcellulose) (HPC) 99 % of control | [4] 109 % of control | [6] 106 % of control | dose: 200.0 mg/kg/injection, schedule: Q01DX009 (ip), vehicle: Klucel (hydroxypropylcellulose) (HPC) 107 % of control

CN(C=O)c1ccc(C(=O)NC(CCC(=O)O)C(=O)O)cc1 (stereo not drawn)
inactive: [14] 98 % of control | [15] 98 % of control | [16] 89 % of control

CC(=O)Nn1c(N)nc2ccccc21
inactive: dose: 100.0 mg/kg/injection, schedule: Q04DX003 (ip), vehicle: saline 100 % of control | dose: 200.0 mg/kg/injection, schedule: Q04DX003 (ip), vehicle: saline 109 % of control | dose: 400.0 mg/kg/injection, schedule: Q04DX003 (ip), vehicle: saline 96 % of control

CCCCCCNP1(NCCCCCC)=NP(NCCCCCC)(NCCCCCC)=NP(NCCCCCC)(NCCCCCC)=NP(NCCCCCC)(NCCCCCC)=N1
inactive: dose: 37.5 mg/kg/injection, schedule: Q01DX005 (ip), vehicle: Klucel (hydroxypropylcellulose) (HPC) 90 % of control | dose: 75.0 mg/kg/injection, schedule: Q01DX005 (ip), vehicle: Klucel (hydroxypropylcellulose) (HPC) 97 % of control

Cc1ccc2cccc(OC(=O)c3cccnc3Oc3ccccc3)c2n1
inactive: dose: 50.0 mg/kg/injection, schedule: Q01DX009 (ip), vehicle: saline with Tween-80 91 % of control | dose: 100.0 mg/kg/injection, schedule: Q01DX009 (ip), vehicle: saline with Tween-80 90 % of control | dose: 200.0 mg/kg/injection, schedule: Q01DX009 (ip), vehicle: saline with Tween-80 90 % of control

C=CCCCCCCCCCC(=O)C=C
inactive: dose: 2.75 mg/kg/injection, schedule: Q01DX005 (ip), vehicle: Klucel (hydroxypropylcellulose) (HPC) 98 % of control | dose: 5.5 mg/kg/injection, schedule: Q01DX005 (ip), vehicle: Klucel (hydroxypropylcellulose) (HPC) 99 % of control | dose: 11.0 mg/kg/injection, schedule: Q01DX005 (ip), vehicle: Klucel (hydroxypropylcellulose) (HPC) 92 % of control | dose: 22.0 mg/kg/injection, schedule: Q01DX005 (ip), vehicle: Klucel (hydroxypropylcellulose) (HPC) 92 % of control | dose: 44.0 mg/kg/injection, schedule: Q01DX005 (ip), vehicle: Klucel (hydroxypropylcellulose) (HPC) 91 % of control

Cc1noc(NS(=O)(=O)c2ccc(N=c3c4ccccc4n(Cc4ccccc4)c4ccccc34)cc2)c1C
inactive: [1] 96 % of control | [2] 94 % of control | [3] 87 % of control

CCNC(=O)Oc1ccc[nH]c1=O
inactive: dose: 25.0 mg/kg/injection, schedule: Q01DX009 (sc), vehicle: water 100 % of control and 103 % of control | [5] 111 % of control and 114 % of control | dose: 50.0 mg/kg/injection, schedule: Q01DX009 (sc), vehicle: water 104 % of control and 109 % of control | [7] 122 % of control | dose: 100.0 mg/kg/injection, schedule: Q01DX009 (sc), vehicle: water 106 % of control and 109 % of control | [8] 118 % of control | dose: 200.0 mg/kg/injection, schedule: Q01DX009 (sc), vehicle: water 108 % of control and 118 % of control | dose: 400.0 mg/kg/injection, schedule: Q01DX009 (ip), vehicle: saline 119 % of control | dose: 400.0 mg/kg/injection, schedule: Q01DX009 (sc), vehicle: water 113 % of control

c1ccc(C2=NC(=c3ccc(=C4N=C(c5ccccc5)C(c5ccccc5)=N4)cc3)N=C2c2ccccc2)cc1
inactive: [14] 90 % of control | [15] 90 % of control | [16] 100 % of control

Cn1nc[n+](C)n1
inactive: [9] 91 % of control | [10] 91 % of control

Cl/N=C1/C=CC=C/C1=N/Cl
inactive: dose: 50.0 mg/kg/injection, schedule: Q01DX005 (ip), vehicle: saline 106 % of control | dose: 100.0 mg/kg/injection, schedule: Q01DX005 (ip), vehicle: saline 104 % of control | dose: 200.0 mg/kg/injection, schedule: Q01DX005 (ip), vehicle: saline 101 % of control
